Reference: US9771369B2, “Compounds and methods for kinase modulation, and indications therefor” (Plexxikon Inc., priority 2014, dated 2017)

Legend:
[1] = tested on: BaF3-FL KIT D816V or BaF3-FL KIT V560G/D816V cell line; test: Cell-based assays of c-Kit mutant kinase activity (cell proliferation, ATPlite); conditions: at least one of the c-kit cell assays of Example 7
In short: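 BaF3 cells dependent on transfected full-length human KIT D816V or V560G/D816V (pCI-Neo, CMV promoter) were seeded at 1×10^4 cells/well and exposed to 8-point 1:3 dilutions from 10 μM top (0.2% DMSO) for three days at 37° C. ATPlite luminescence gave cell number; IC50 from concentration-response.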

c-Kit kinase = c-Kit kinase (Homo sapiens (Human), UniProt P10721); test: c-Kit biochemical assay (AlphaScreen kinase activity)
Chain of c-Kit kinase (P10721 26-976): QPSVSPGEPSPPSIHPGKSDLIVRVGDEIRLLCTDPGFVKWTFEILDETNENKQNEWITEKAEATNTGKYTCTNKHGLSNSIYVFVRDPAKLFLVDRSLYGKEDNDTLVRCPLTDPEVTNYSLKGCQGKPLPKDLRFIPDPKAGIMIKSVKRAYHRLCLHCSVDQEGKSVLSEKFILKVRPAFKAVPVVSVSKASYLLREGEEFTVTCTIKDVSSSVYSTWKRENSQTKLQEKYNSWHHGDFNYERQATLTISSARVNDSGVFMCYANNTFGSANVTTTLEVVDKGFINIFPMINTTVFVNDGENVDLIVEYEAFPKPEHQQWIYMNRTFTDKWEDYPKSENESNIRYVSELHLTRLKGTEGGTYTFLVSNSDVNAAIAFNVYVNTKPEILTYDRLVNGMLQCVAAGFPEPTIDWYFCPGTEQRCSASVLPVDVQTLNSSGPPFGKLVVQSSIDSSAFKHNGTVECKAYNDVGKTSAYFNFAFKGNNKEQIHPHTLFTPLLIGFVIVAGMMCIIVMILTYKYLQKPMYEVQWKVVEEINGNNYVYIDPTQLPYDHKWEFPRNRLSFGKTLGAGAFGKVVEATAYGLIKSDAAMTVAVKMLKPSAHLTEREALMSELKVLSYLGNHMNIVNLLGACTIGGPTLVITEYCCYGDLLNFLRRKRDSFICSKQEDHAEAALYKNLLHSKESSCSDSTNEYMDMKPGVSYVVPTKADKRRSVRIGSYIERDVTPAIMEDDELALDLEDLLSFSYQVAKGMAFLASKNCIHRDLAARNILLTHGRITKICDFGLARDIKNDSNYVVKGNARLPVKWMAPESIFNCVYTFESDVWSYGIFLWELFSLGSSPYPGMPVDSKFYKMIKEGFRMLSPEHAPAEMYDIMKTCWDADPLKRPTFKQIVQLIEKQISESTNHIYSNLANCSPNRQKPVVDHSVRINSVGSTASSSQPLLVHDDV
In short: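 IC50 values come from 8-point, 1:3 compound titrations measuring inhibition of peptide phosphorylation by c-Kit (commercial or His-tagged E. coli-expressed) over 1 h at room temperature, read by AlphaScreen PY30/streptavidin beads. Low-ATP version: 10 μM ATP, 100 nM biotin-(E4Y)3; high-ATP version: 100 μM ATP, 30 nM biotin-(E4Y)10.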

Row | SMILES | IC50 [1] [nM] | IC50 (c-Kit kinase) [µM]
1 | Cc1nc(C2CCN(c3ncnc4[nH]c(-c5cnn(C(F)F)c5)cc34)CC2)[nH]c1-c1ccc2c(c1)OCO2 [P-3138, 4-[4-[5-(1,3-benzodioxol-5-yl)-4-methyl-1H-imidazol-2-yl]-1-piperidyl]-6-[1-(difluoromethyl)pyrazol-4-yl]-7H-pyrrolo[2,3-d]pyrimidine] | < 10000 | 0.0001 to 1
2 | Cc1nc(C2CCN(c3ncnc4[nH]c(-c5ccc(F)cc5)cc34)CC2)[nH]c1-c1ccc(C(F)(F)F)cc1 [P-3136, 6-(4-fluorophenyl)-4-[4-[4-methyl-5-[4-(trifluoromethyl)phenyl]-1H-imidazol-2-yl]-1-piperidyl]-7H-pyrrolo[2,3-d]pyrimidine] | < 10000 | 1 to 10
3 | Cc1nc(C2CCN(c3ncnc4[nH]c(-c5cnn(C(F)F)c5)cc34)CC2)[nH]c1-c1ccc2c(c1)OCCO2 [P-3133, 6-[1-(difluoromethyl)pyrazol-4-yl]-4-[4-[5-(2,3-dihydro-1,4-benzodioxin-6-yl)-4-methyl-1H-imidazol-2-yl]-1-piperidyl]-7H-pyrrolo[2,3-d]pyrimidine] | < 10000 | 0.0001 to 1
4 | Cc1ccc(-c2[nH]c(C3CCN(c4ncnc5[nH]c(-c6ccc(F)cc6)cc45)CC3)nc2C(F)(F)F)cc1 [P-3135, 6-(4-fluorophenyl)-4-[4-[5-(p-tolyl)-4-(trifluoromethyl)-1H-imidazol-2-yl]-1-piperidyl]-7H-pyrrolo[2,3-d]pyrimidine] | < 10000 | 0.0001 to 1
5 | Cc1nc(C2CCN(c3ncnc4[nH]c(-c5cccc(C(F)(F)F)c5)cc34)CC2)[nH]c1-c1ccccc1 [P-3098, 4-[4-(4-methyl-5-phenyl-1H-imidazol-2-yl)-1-piperidyl]-6-[3-(trifluoromethyl)phenyl]-7H-pyrrolo[2,3-d]pyrimidine] | < 10000 | 1 to 10
6 | Cc1cc2c(N3CCC(C)(c4nc(C)c(-c5ccc6c(c5)OC(F)(F)O6)[nH]4)CC3)ncnc2[nH]1 [P-3152, 4-[4-[5-(2,2-difluoro-1,3-benzodioxol-5-yl)-4-methyl-1H-imidazol-2-yl]-4-methyl-1-piperidyl]-6-methyl-7H-pyrrolo[2,3-d]pyrimidine] | < 10000 | 1 to 10
7 | CCc1ccc(-c2[nH]c(C3(C)CCN(c4ncnc5[nH]c(C)cc45)CC3)nc2C)cc1 [P-3101, 4-[4-[5-(4-ethylphenyl)-4-methyl-1H-imidazol-2-yl]-4-methyl-1-piperidyl]-6-methyl-7H-pyrrolo[2,3-d]pyrimidine] | < 10000 | 0.0001 to 1
8 | COc1cc(-c2[nH]c(C3CCN(c4ncnc5[nH]c(C)cc45)CC3)nc2C)ccc1C [P-3129, 4-[4-[5-(3-methoxy-4-methyl-phenyl)-4-methyl-1H-imidazol-2-yl]-1-piperidyl]-6-methyl-7H-pyrrolo[2,3-d]pyrimidine] | < 10000 | 1 to 10
9 | CCOc1ccc(-c2[nH]c(C3(C)CCN(c4ncnc5[nH]c(-c6ccc(C#N)cc6)cc45)CC3)nc2C)cc1 [P-3161, 4-[4-[4-[5-(4-ethoxyphenyl)-4-methyl-1H-imidazol-2-yl]-4-methyl-1-piperidyl]-7H-pyrrolo[2,3-d]pyrimidin-6-yl]benzonitrile] | < 10000 | 0.0001 to 1
10 | COc1ccc(-c2[nH]c(C3CCN(c4ncnc5[nH]c(-c6ccnc(OC)c6)cc45)CC3)nc2C(F)(F)F)cc1 [P-3146, 4-[4-[5-(4-methoxyphenyl)-4-(trifluoromethyl)-1H-imidazol-2-yl]-1-piperidyl]-6-(2-methoxy-4-pyridyl)-7H-pyrrolo[2,3-d]pyrimidine] | < 10000 | 0.0001 to 1
11 | COc1ccc(-c2[nH]c(C3CCN(c4ncnc5[nH]c(-c6cnn(C(F)F)c6)cc45)CC3)nc2C)cc1 [P-3108, 6-[1-(difluoromethyl)pyrazol-4-yl]-4-[4-[5-(4-methoxyphenyl)-4-methyl-1H-imidazol-2-yl]-1-piperidyl]-7H-pyrrolo[2,3-d]pyrimidine] | < 10000 | 0.0001 to 1
12 | Cc1nc(C2CCN(c3ncnc4[nH]c(-c5ccc(F)cc5)cc34)CC2)[nH]c1-c1ccc(Cl)s1 [P-3119, 4-[4-[5-(5-chloro-2-thienyl)-4-methyl-1H-imidazol-2-yl]-1-piperidyl]-6-(4-fluorophenyl)-7H-pyrrolo[2,3-d]pyrimidine] | < 10000 | 1 to 10
13 | COc1cccc(-c2[nH]c(C3CCN(c4ncnc5[nH]c(-c6cnn(C(F)F)c6)cc45)CC3)nc2C)c1 [P-3114, 6-[1-(difluoromethyl)pyrazol-4-yl]-4-[4-[5-(3-methoxyphenyl)-4-methyl-1H-imidazol-2-yl]-1-piperidyl]-7H-pyrrolo[2,3-d]pyrimidine] | < 10000 | 0.0001 to 1
14 | COc1ccc(-c2[nH]c(C3CCN(c4ncnc5[nH]c(-c6ccc(C#N)cc6)cc45)CC3)nc2C(F)(F)F)cc1 [P-3148, 4-[4-[4-[5-(4-methoxyphenyl)-4-(trifluoromethyl)-1H-imidazol-2-yl]-1-piperidyl]-7H-pyrrolo[2,3-d]pyrimidin-6-yl]benzonitrile] | < 10000 | 0.0001 to 1
15 | Cc1ccc(-c2[nH]c(C3CCN(c4ncnc5[nH]c(-c6ccc(F)cc6)cc45)CC3)nc2C)s1 [P-3118, 6-(4-fluorophenyl)-4-[4-[4-methyl-5-(5-methyl-2-thienyl)-1H-imidazol-2-yl]-1-piperidyl]-7H-pyrrolo[2,3-d]pyrimidine] | < 10000 | 0.0001 to 1
16 | Cc1nc(C2CCN(c3ncnc4[nH]c(-c5cnn(C(F)F)c5)cc34)CC2)[nH]c1-c1ccc(OC(F)(F)F)cc1 [P-3116, 6-[1-(difluoromethyl)pyrazol-4-yl]-4-[4-[4-methyl-5-[4-(trifluoromethoxy)phenyl]-1H-imidazol-2-yl]-1-piperidyl]-7H-pyrrolo[2,3-d]pyrimidine] | < 10000 | 0.0001 to 1
17 | Cc1nc(C2(C)CCN(c3ncnc4[nH]c(-c5ccc(C#N)cc5)cc34)CC2)[nH]c1-c1ccc(C(F)F)cc1 [P-3164, 4-[4-[4-[5-[4-(difluoromethyl)phenyl]-4-methyl-1H-imidazol-2-yl]-4-methyl-1-piperidyl]-7H-pyrrolo[2,3-d]pyrimidin-6-yl]benzonitrile] | < 10000 | 0.0001 to 1
18 | N#Cc1ccc(-c2cc3c(N4CCC(c5nc(C6CC6)c(-c6ccccc6)[nH]5)CC4)ncnc3[nH]2)cc1 [P-3010, 4-[4-[4-(4-cyclopropyl-5-phenyl-1H-imidazol-2-yl)-1-piperidyl]-7H-pyrrolo[2,3-d]pyrimidin-6-yl]benzonitrile] | < 10000 | 0.0001 to 1
19 | COc1cc(-c2cc3c(N4CCC(c5nc(C)c(-c6ccc(C(F)(F)F)cc6)[nH]5)CC4)ncnc3[nH]2)ccn1 [P-3149, 6-(2-methoxy-4-pyridyl)-4-[4-[4-methyl-5-[4-(trifluoromethyl)phenyl]-1H-imidazol-2-yl]-1-piperidyl]-7H-pyrrolo[2,3-d]pyrimidine] | < 10000 | 1 to 10
20 | COc1ccc(-c2[nH]c(C3(C)CCN(c4ncnc5[nH]c(C)cc45)CC3)nc2C)cc1C [P-3102, 4-[4-[5-(4-methoxy-3-methyl-phenyl)-4-methyl-1H-imidazol-2-yl]-4-methyl-1-piperidyl]-6-methyl-7H-pyrrolo[2,3-d]pyrimidine] | < 10000 | 1 to 10
21 | CCOc1ccc(-c2[nH]c(C3CCN(c4ncnc5[nH]c(C)cc45)CC3)nc2C)cc1C [P-3125, 4-[4-[5-(4-ethoxy-3-methyl-phenyl)-4-methyl-1H-imidazol-2-yl]-1-piperidyl]-6-methyl-7H-pyrrolo[2,3-d]pyrimidine] | < 10000 | 1 to 10
22 | COc1ccc(-c2[nH]c(C3(C)CCN(c4ncnc5[nH]c(-c6ccc(C#N)cc6)cc45)CC3)nc2C)cc1F [P-3163, 4-[4-[4-[5-(3-fluoro-4-methoxy-phenyl)-4-methyl-1H-imidazol-2-yl]-4-methyl-1-piperidyl]-7H-pyrrolo[2,3-d]pyrimidin-6-yl]benzonitrile] | < 10000 | 0.0001 to 1
23 | Cc1nc(C2CCN(c3ncnc4[nH]c(-c5ccnc(C(F)(F)F)c5)cc34)CC2)[nH]c1-c1ccccc1 [P-3097, 4-[4-(4-methyl-5-phenyl-1H-imidazol-2-yl)-1-piperidyl]-6-[2-(trifluoromethyl)-4-pyridyl]-7H-pyrrolo[2,3-d]pyrimidine] | < 10000 | 1 to 10
24 | Cc1cc2c(N3CCC(c4nc(C)c(-c5ccc6c(c5)OCO6)[nH]4)CC3)ncnc2[nH]1 [P-3120, 4-[4-[5-(1,3-benzodioxol-5-yl)-4-methyl-1H-imidazol-2-yl]-1-piperidyl]-6-methyl-7H-pyrrolo[2,3-d]pyrimidine] | < 10000 | 1 to 10
25 | CCOc1ccc(-c2[nH]c(C3(C)CCN(c4ncnc5[nH]c(-c6cnn(C(F)F)c6)cc45)CC3)nc2C)cc1 [P-3170, 6-[1-(difluoromethyl)pyrazol-4-yl]-4-[4-[5-(4-ethoxyphenyl)-4-methyl-1H-imidazol-2-yl]-4-methyl-1-piperidyl]-7H-pyrrolo[2,3-d]pyrimidine] | < 10000 | 0.0001 to 1
26 | COc1ccc(-c2[nH]c(C3(C)CCN(c4ncnc5[nH]c(-c6cnn(C(F)F)c6)cc45)CC3)nc2C)cc1 [P-3153, 6-[1-(difluoromethyl)pyrazol-4-yl]-4-[4-[5-(4-methoxyphenyl)-4-methyl-1H-imidazol-2-yl]-4-methyl-1-piperidyl]-7H-pyrrolo[2,3-d]pyrimidine] | < 10000 | 0.0001 to 1
27 | COc1cccc(-c2[nH]c(C3CCN(c4ncnc5[nH]c(C)cc45)CC3)nc2C)c1 [P-3131, 4-[4-[5-(3-methoxyphenyl)-4-methyl-1H-imidazol-2-yl]-1-piperidyl]-6-methyl-7H-pyrrolo[2,3-d]pyrimidine] | < 10000 | 1 to 10
